Experiments:
BCL-XL [1] = molecular target: T1, BCL-XL (Homo sapiens, UniProt Q07817); test: BCL-XL degradation assay, western blot in MOLT-4 cells, 16 h; format: cell-based; settings: for DC50: read-out: Bcl-xL WB in MOLT-4 degradation 16 h: Mean external-Abs DC50
T1 construct: endogenous in cells; host or cells: MOLT-4
Method in brief: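 Infrared-imaged western blots quantified BCL-xL (normalised against beta-actin/GAPDH) after 16 hr, 37° C exposure of MOLT-4 cells to 0.02-10 μM compound; results given as DC50 and Dmax % bins.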

BCL-XL [2] = molecular target: T1, BCL-XL; test: Bcl-xL ELISA degradation in MOLT-4 cells, 6 h; format: cell-based; settings: for DC50: read-out: Bcl-xL ELISA in MOLT-4 degradation 6 h: Mean external-Abs DC50
Method: The letter codes for BCL-XL DC50 include: A (<0.01 μM); B (0.01-0.1 μM); C (>[…]); D (>0.5-1.0 μM); and E (>1.0 μM). The letter codes for Dmax % include A (>75%); B (50 to 75%); C (<50%).

[3] = western blot, MOLT-4 cells, 16 h, read-out: Bcl-xL WB in MOLT-4 degradation 16 h: Average Dmax %
[4] = western blot, MOLT-4 cells, 16 h

T1 sequence (Q07817 whole entry): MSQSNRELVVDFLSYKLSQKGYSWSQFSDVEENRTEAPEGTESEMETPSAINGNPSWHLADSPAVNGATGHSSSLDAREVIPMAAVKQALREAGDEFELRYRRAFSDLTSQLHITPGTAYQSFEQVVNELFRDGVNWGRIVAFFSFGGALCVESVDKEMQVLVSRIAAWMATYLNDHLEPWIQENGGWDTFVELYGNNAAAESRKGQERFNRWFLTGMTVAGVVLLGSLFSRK

Dmax (BCL-XL [1]; [3]) [%] | Dmax (BCL-XL [2]) [%] | DC50 (BCL-XL [2]) [nM] | DC50 (BCL-XL [1]; [4]) [nM] | Compound | Dmax (BCL-XL [1]; MOLT-4, read-out: Bcl-xL WB in MOLT-4 degradation 16 h: Average Dmax %) [%]
> 75 | > 75 | 10 to 100 | < 10 | Cc1ncsc1-c1ccc([C@H](C)NC(=O)[C@@H]2C[C@@H](O)CN2C(=O)[C@@H](NC(=O)C2CCN(c3ccc(S(=O)(=O)NC(=O)c4nc(N5CCc6cccc(C(=O)Nc7nc8cccnc8s7)c6C5)ccc4-c4cnn(CC5CCCCC5)c4C)cc3)CC2)C(C)(C)C)cc1 [I-241] | –
> 75 | > 75 | 10 to 100 | < 10 | C#Cc1ccc([C@H](CO)NC(=O)[C@@H]2C[C@@H](O)CN2C(=O)[C@@H](NC(=O)C2CCN(c3ccc(S(=O)(=O)NC(=O)c4nc(N5CCc6cccc(C(=O)Nc7nc8ccccc8s7)c6C5)ccc4-c4cnn(CC5CCCCC5)c4C)cc3)CC2)C(C)(C)C)cc1 [I-242] | –
> 75 | > 75 | 10 to 100 | < 10 | Cc1cc(N(C)c2ccc(-c3cnn(CC45CC6CC(CC(C6)C4)C5)c3C)c(C(=O)NS(=O)(=O)c3ccc(N4CCC(C(=O)N[C@H](C(=O)N5C[C@H](O)C[C@H]5C(=O)N[C@@H](C)c5ccc(-c6scnc6C)cc5)C(C)(C)C)CC4)cc3)n2)nnc1Nc1nc2ccccc2s1 [I-246] | –
50 to 75 | < 50 | > 1000 | 10 to 100 | Cc1ncsc1-c1ccc([C@H](C)NC(=O)[C@@H]2C[C@@H](O)CN2C(=O)[C@@H](NC(=O)N2CC3(CC(N4CCN(C(=O)c5nc(N6CCc7cccc(C(=O)Nc8nc9ccccc9s8)c7C6)ccc5-c5cnn(CC6CCCCC6)c5C)CC4)C3)C2)C(C)(C)C)cc1 [I-248] | –
> 75 | < 50 | > 1000 | < 10 | Cc1ncsc1-c1ccc(CNC(=O)[C@@H]2C[C@@H](O)CN2C(=O)[C@@H](NC(=O)C2(F)CC2)C(C)(C)C)c(OCC2CCN(CC[C@H](CSc3ccccc3)Nc3ccc(S(=O)(=O)NC(=O)c4ccc(N5CCN(CC6=C(c7ccc(Cl)cc7)CCC(C)(C)C6)CC5)cc4)cc3S(=O)(=O)C(F)(F)F)CC2)c1 [I-249] | –
> 75 | – | – | 10 to 100 | Cc1ncsc1-c1ccc(CNC(=O)[C@@H]2C[C@@H](O)CN2C(=O)[C@@H](NC(=O)CCOCCOCCOCC#Cc2ccc(OCCCc3sc(N4CCc5cccc(C(=O)Nc6nc7ccccc7s6)c5C4)nc3C(=O)O)cc2)C(C)(C)C)cc1 [I-385] | –
> 75 | – | – | 10 to 100 | Cc1ncsc1-c1ccc(CNC(=O)[C@@H]2C[C@@H](O)CN2C(=O)[C@@H](NC(=O)C2(F)CC2)C(C)(C)C)c(OCCCCCCCCC(=O)N(C)CC#Cc2ccc(OCCCc3sc(N4CCc5cccc(C(=O)Nc6nc7ccccc7s6)c5C4)nc3C(=O)O)c(F)c2)c1 [I-386] | –
> 75 | – | – | 10 to 100 | Cc1ncsc1-c1ccc([C@H](C)NC(=O)[C@@H]2C[C@@H](O)CN2C(=O)[C@@H](NC(=O)C[C@H]2CC[C@H](C(=O)N3CCN(CC[C@H](CSc4ccccc4)Nc4ccc(S(=O)(=O)NC(=O)c5ccc(N6CCN(CC7=C(c8ccc(Cl)cc8)CCC(C)(C)C7)CC6)cc5)cc4S(=O)(=O)C(F)(F)F)CC3)CC2)C(C)(C)C)cc1 [I-390] | –
> 75 | – | – | 10 to 100 | Cc1ncsc1-c1ccc([C@H](C)NC(=O)[C@@H]2C[C@@H](O)CN2C(=O)[C@@H](NC(=O)[C@H]2CC[C@H](CC(=O)N3CCN(CC[C@H](CSc4ccccc4)Nc4ccc(S(=O)(=O)NC(=O)c5ccc(N6CCN(CC7=C(c8ccc(Cl)cc8)CCC(C)(C)C7)CC6)cc5)cc4S(=O)(=O)C(F)(F)F)CC3)CC2)C(C)(C)C)cc1 [I-391] | –
< 50 | – | – | > 1000 | Cc1ncsc1-c1ccc([C@H](C)NC(=O)[C@@H]2C[C@@H](O)CN2C(=O)[C@@H](NC(=O)CCCCCC(=O)N2CCN(CC[C@@H](CSc3ccccc3)Nc3ccc(S(=O)(=O)NC(=O)c4ccc(N5CCC(C)(C)CC5)cc4)cc3S(=O)(=O)C(F)(F)F)CC2)C(C)(C)C)cc1 [I-393] | –

The next lines start with the compound.

Compound | Dmax (BCL-XL [1]; [3]) [%] | Dmax (BCL-XL [2]) [%] | DC50 (BCL-XL [2]) [nM] | DC50 (BCL-XL [1]; [4]) [nM] | Dmax (BCL-XL [1]; MOLT-4, read-out: Bcl-xL WB in MOLT-4 degradation 16 h: Average Dmax %) [%]
Cc1ncsc1-c1ccc([C@H](C)NC(=O)[C@@H]2C[C@@H](O)CN2C(=O)[C@@H](NC(=O)N2CCC(CN3CCN(CC#Cc4ccc(OCCCc5sc(N6CCc7cccc(C(=O)Nc8nc9ccccc9s8)c7C6)nc5C(=O)O)c(F)c4)CC3)CC2)C(C)(C)C)cc1 [I-72] | < 50 | < 50 | 10 to 100 | – | –
Cc1ncsc1-c1ccc([C@H](C)NC(=O)[C@@H]2C[C@@H](O)CN2C(=O)[C@@H](NC(=O)N2CCC3(CCC(C(=O)N4CCN(CC[C@H](CSc5ccccc5)Nc5ccc(S(=O)(=O)NC(=O)c6ccc(N7CCN(CC8=C(c9ccc(Cl)cc9)CCC(C)(C)C8)CC7)cc6)cc5S(=O)(=O)C(F)(F)F)CC4)CC3)CC2)C(C)(C)C)cc1 [I-126] | < 50 | – | – | > 1000 | –
C#Cc1ccc([C@H](C)NC(=O)[C@@H]2C[C@@H](O)CN2C(=O)[C@@H](NC(=O)N2CCC3(CCC(C(=O)N4CCN(CC[C@H](CSc5ccccc5)Nc5ccc(S(=O)(=O)NC(=O)c6ccc(N7CCN(CC8=C(c9ccc(Cl)cc9)CCC(C)(C)C8)CC7)cc6)cc5S(=O)(=O)C(F)(F)F)CC4)CC3)CC2)C(C)(C)C)cc1 [I-127] | < 50 | – | – | > 1000 | –
Cc1ncsc1-c1ccc([C@H](C)NC(=O)[C@@H]2C[C@@H](O)CN2C(=O)[C@@H](NC(=O)CCC2(Cn3ncc(-c4ccc(N5CCc6cccc(C(=O)Nc7nc8ccccc8s7)c6C5)nc4C(=O)O)c3C)CCCCC2)C(C)(C)C)cc1 [I-128, 6-(8-(benzo[d]thiazol-2-ylcarbamoyl)-3,4-dihydroisoquinolin-2 (1H)-yl)-3-(1-((1-(3-(((S)-1-((2S,4R)-4-hydroxy-2-(((S)-1-(4-(4-methylthiazol-5-yl)phenyl)ethyl)carbamoyl)pyrrolidin-1-yl)-3,3-dimethyl-1-oxobutan-2-yl)amino)-3-oxopropyl)cyclohexyl)methyl)-5-methyl-1H-pyrazol-4-yl)picolinic acid] | < 50 | – | – | > 1000 | –
Cc1ncsc1-c1ccc([C@H](C)NC(=O)[C@@H]2C[C@@H](O)CN2C(=O)[C@@H](NC(=O)CCCNC(=O)CCC2(Cn3ncc(-c4ccc(N5CCc6cccc(C(=O)Nc7nc8ccccc8s7)c6C5)nc4C(=O)O)c3C)CCCCC2)C(C)(C)C)cc1 [I-129] | > 75 | – | – | 100 to 500 | –
Cc1ncsc1-c1ccc([C@H](C)NC(=O)[C@@H]2C[C@@H](O)CN2C(=O)[C@@H](NC(=O)CCCC(=O)N2CCN(CCCC3(Cn4ncc(-c5ccc(N6CCc7cccc(C(=O)Nc8nc9ccccc9s8)c7C6)nc5C(=O)O)c4C)CCCCC3)CC2)C(C)(C)C)cc1 [I-130] | 50 to 75 | – | – | 100 to 500 | –
Cc1ncsc1-c1ccc([C@H](C)NC(=O)[C@@H]2C[C@@H](O)CN2C(=O)[C@@H](NC(=O)CCCCCC(=O)N2CCN(CCCC3(Cn4ncc(-c5ccc(N6CCc7cccc(C(=O)Nc8nc9ccccc9s8)c7C6)nc5C(=O)O)c4C)CCCCC3)CC2)C(C)(C)C)cc1 [I-131] | 50 to 75 | – | – | 100 to 500 | –
Cc1ncsc1-c1ccc(CNC(=O)[C@@H]2C[C@@H](O)CN2C(=O)[C@@H](NC(=O)C2(F)CC2)C(C)(C)C)c(OCCCN2CCN(CC[C@H](CSc3ccccc3)Nc3ccc(S(=O)(=O)NC(=O)c4ccc(N5CCN(CC6=C(c7ccc(Cl)cc7)CCC(C)(C)C6)CC5)cc4)cc3S(=O)(=O)C(F)(F)F)CC2)c1 [I-132, (2S,4R)—N-(2-(3-(4-((R)-3-((4-(N-(4-(4-((4′-chloro-4,4-dimethyl-3,4,5,6-tetrahydro-[1,1′-biphenyl]-2-yl)methyl)piperazin-1-yl)benzoyl)sulfamoyl)-2-((trifluoromethyl)sulfonyl)phenyl)amino)-4-(phenylthio)butyl)piperazin-1-yl)propoxy)-4 (4-methylthiazol-5-yl)benzyl)-1-((S)-2-(1-fluorocyclopropanecarboxamido)-3,3-dimethylbutanoyl)-4-hydroxypyrrolidine-2-carboxamide] | – | – | – | 10 to 100 | > 75
Cc1ncsc1-c1ccc([C@H](C)NC(=O)[C@@H]2C[C@@H](O)CN2C(=O)[C@@H](c2cc(N3CC4(CN(c5ccc(S(=O)(=O)NC(=O)c6nc(N7CCc8cccc(C(=O)Nc9nc%10ccccc%10s9)c8C7)ccc6-c6cnn(CC7CCCCC7)c6C)cc5)C4)C3)no2)C(C)C)cc1 [I-226] | > 75 | 50 to 75 | 10 to 100 | < 10 | –
Cc1ncsc1-c1ccc([C@H](C)NC(=O)[C@@H]2C[C@@H](O)CN2C(=O)C(c2cc(OC3CN(c4ccc(S(=O)(=O)NC(=O)c5nc(N6CCc7cccc(C(=O)Nc8nc9ccccc9s8)c7C6)ccc5-c5cnn(CC6CCCCC6)c5C)cc4)C3)no2)C(C)C)cc1 (stereo partly shown) [I-230] | > 75 | > 75 | 10 to 100 | < 10 | –
Cc1ncsc1-c1ccc([C@H](C)NC(=O)[C@@H]2C[C@@H](O)CN2C(=O)C(c2cc(OC3CCN(CCNC(=O)c4nc(N5CCc6cccc(C(=O)Nc7nc8ccccc8s7)c6C5)ccc4-c4cnn(CC5CCCCC5)c4C)CC3)no2)C(C)C)cc1 (stereo partly shown) [I-234] | 50 to 75 | < 50 | > 1000 | 10 to 100 | –
Cc1ncsc1-c1ccc([C@H](C)NC(=O)[C@@H]2C[C@@H](O)CN2C(=O)[C@@H](c2cc(N3CC(N4CCC(NC(=O)c5nc(N6CCc7cccc(C(=O)Nc8nc9ccccc9s8)c7C6)ccc5-c5cnn(CC6CCCCC6)c5C)CC4)C3)no2)C(C)C)cc1 [I-236] | > 75 | 50 to 75 | 100 to 500 | < 10 | –
Cc1ncsc1-c1ccc([C@H](C)NC(=O)[C@@H]2C[C@@H](O)CN2C(=O)C(c2cc(OC3CC4(C3)CN(C(=O)c3nc(N5CCc6cccc(C(=O)Nc7nc8ccccc8s7)c6C5)ccc3-c3cnn(CC5CCCCC5)c3C)C4)no2)C(C)C)cc1 (stereo partly shown) [I-237] | > 75 | 50 to 75 | 100 to 500 | < 10 | –

Reference: patent publication US20250197387A1, “BCL-XL DEGRADERS AND USES THEREOF” (Kymera Therapeutics, Inc., priority 2021, published 2025)
